“Also recorded” adds a separate entry of the source. Counter-ions that a name gives are not always drawn. Like-named read-outs stand apart in the source and are kept apart here.
Legend:
[1] = tested on: transplanted tumor in mice; type: in vivo, mouse; conditions: for effect on the antineoplastic activity of low dose sildenafil: 2 mg/kg/day with sildenafil citrate 10 or 20 mg/kg/day; for tumor inhibition rate: 2 weeks; for toxicity / adverse reactions of the mice during the experimental period: citrate
cultured tumor cells [2] = assay: growth of cultured tumor cells; type: cell-based; conditions: 200 μM; citrate
From the text: (§1) The antitneoplastic mechanism of sildenafil at low doses is not yet clear.
(§2) The antitneoplastic mechanism of low dose sildenafil is not yet clear.

cultured tumor cells [3] = assay: production of reactive oxygen species (ROS) in cultured tumor cells; type: cell-based; conditions: 300 μM; citrate
From the text: as §1, §2

[4] = sildenafil concentration in the blood after oral intake by an adult patient; type: in vivo, human; conditions: low oral doses (2-10 mg), estimated
From the text: as §1, §2

malignant tumors = assay: general statement on low dose sildenafil: tumor growth inhibition in vivo and tolerability; conditions: low dose: daily oral 0.04˜0.5 mg per 1 kg, injection 0.04˜0.2 mg per 1 kg or topical less than 1%; for toxicity or side effects: citrate
From the text: It can be used to achieve effective control of tumor growth and improve the treatment of tumors.

[5] = tested on: human hepatocellular carcinoma cell line (HEPG2); conditions: 2 μM, citrate; cited from earlier work
[6] = tested on: transplanted tumor of prostate cancer; conditions: cited from earlier work
[7] = tested on: transplanted tumor derived from liver cancer; conditions: mouth-fed, combined with Stivarga (regorafenib); cited from earlier work

SMILES: CN(C)CCC(c1ccc(Cl)cc1)c1ccccn1 (stereo not drawn) [chlorphenamine maleate]
- effect on the antineoplastic activity of low dose sildenafil [1]: directly counteract the antineoplastic activity
- effect on the antineoplastic activity of low dose sildenafil ([1]; listed as chlorphenamine malate): significantly counteracted the antineoplastic activity

SMILES: CCCc1nn(C)c2c(=O)[nH]c(-c3cc(S(=O)(=O)N4CCN(C)CC4)ccc3OCC)nc12.O=C(O)CC(O)(CC(=O)O)C(=O)O [sildenafil, 1-[[3-(6,7-Dihydro-1-methyl-7-oxo-3-propyl-1H-pyrazolo[4,3-d]pyrimidin-5-yl)-4-ethoxyphenyl]sulfonyl]-4-methylpiperazine citrate]
- tumor inhibition rate ([1]; 10 mg/kg/day, combined with chlorphenamine maleate 2 mg/kg/day): 16%
- tumor inhibition rate ([1]; 20 mg/kg/day, combined with chlorphenamine maleate 2 mg/kg/day): 7%
- inhibitory effect on growth of the transplanted tumor ([1]; 50 mg/kg/day): no obvious inhibitory effects
- tumor inhibition rate ([1]; gavage 10 mg/kg/day, alone): 63%
- tumor growth inhibition rate ([1]; gavage 10 mg/kg/day, 36 days, dissolved in 25% ethanol): 68%
- toxicity / adverse reactions of the mice during the experimental period ([1]; gavage 10 mg/kg/day, 36 days, 10 mg/kg/day): no significant or observable toxicity reactions
- toxicity / adverse reactions of the mice during the experimental period ([1]; gavage 10 mg/kg/day, 36 days, listed as sildenafil citrate, 10 mg/kg/day): no significant or observable adverse reactions
- tumor inhibition rate ([1]; gavage 20 mg/kg/day, alone): 50%
- effect on the growth of cultured tumor cells (cultured tumor cells [2]): direct inhibitory effect; also recorded: directly inhibited the growth
- production of reactive oxygen species (ROS) (cultured tumor cells [3]): induced production of reactive oxygen species (ROS); also recorded: induce the production of reactive oxygen species (ROS)
- drug concentration in the blood [4]: lower than 0.1 μM
- inhibition rate of tumor growth (malignant tumors): more than 50%
- toxicity or side effects (malignant tumors): does not produce significant toxicity or side effects
- toxicity or side effects (malignant tumors; listed as Sildenafil citrate): without significant toxic side effects
- toxicity or side effects (malignant tumors; listed as sildenafil citrate): without significant toxic side effects
- expression of IkB nitro-tyrosine and apoptotic gene ligand Fas-L [5]: stimulate the expression
- antineoplastic effect used alone ([6]; alone at normal doses (25-100 mg), versus control group): not significant
- growth of transplanted tumor of prostate cancer ([6]; intraperitoneal injection, combined with Adriamycin (Doxorubicin)): significantly inhibit the growth
- growth of transplanted tumor derived from liver cancer [7]: significantly inhibit the growth
